Reference: US8691990B2, “6-heterocyclic imidazo[1,2-α]pyridine-2-carboxamide derivatives, preparation and therapeutic use thereof” (Sanofi, priority 2008, dated 2014)
Counter-ions that a name gives are not always drawn.

target: T1, murine Nurr 1 receptor (Mus musculus, UniProt Q06219); assay: In vitro activity on N2A cells (NBRE-luciferase reporter gene); format: cell-based; settings: N2A cell line endogenously expressing Nurr 1, stably transfected with 8NBRE-luciferase; products incubated 24 hours
T1 construct: a cell line (N2A) endogenously expressing the murine Nurr 1 receptor; host or cells: Neuro-2A (N2A) mouse neuroblastoma cells stably transfected with 8NBRE-luciferase
T1 sequence (Q06219 whole entry): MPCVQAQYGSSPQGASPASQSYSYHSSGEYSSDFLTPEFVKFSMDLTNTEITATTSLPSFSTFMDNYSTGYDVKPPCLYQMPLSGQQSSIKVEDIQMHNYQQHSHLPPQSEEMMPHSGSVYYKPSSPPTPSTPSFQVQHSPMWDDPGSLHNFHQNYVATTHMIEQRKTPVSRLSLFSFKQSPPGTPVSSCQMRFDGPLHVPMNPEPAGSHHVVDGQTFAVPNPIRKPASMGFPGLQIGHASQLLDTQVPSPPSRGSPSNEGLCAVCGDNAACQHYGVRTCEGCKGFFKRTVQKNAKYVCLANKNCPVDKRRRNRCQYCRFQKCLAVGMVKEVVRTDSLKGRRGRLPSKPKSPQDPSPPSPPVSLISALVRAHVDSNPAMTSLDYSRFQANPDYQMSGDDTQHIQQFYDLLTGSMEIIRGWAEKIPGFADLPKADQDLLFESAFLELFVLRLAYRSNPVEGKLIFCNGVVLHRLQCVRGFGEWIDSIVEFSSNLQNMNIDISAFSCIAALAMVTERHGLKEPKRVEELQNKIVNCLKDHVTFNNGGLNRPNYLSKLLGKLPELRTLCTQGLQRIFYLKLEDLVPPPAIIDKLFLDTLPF
Protocol: Evaluation of the In Vitro Activity on N2A Cells
The activity of the compounds according to the invention was evaluated on a cell line (N2A) endogenously expressing the murine Nurr 1 receptor and stably transfected with the NOT binding response element (NBRE) coupled to the luciferase reporter gene. The EC50 values are between 0.01 and 1000 nM. The tests were performed according to the procedure described hereinbelow.
The cell line Neuro-2A is obtained from a standard commercial source (ATCC). The clone Neuro-2A was obtained from a spontaneous tumour originating from a strain of albino mice A by R. J Klebe et al. This line Neuro-2A is then stably transfected with 8NBRE-luciferase. The N2A-8NBRE cells are cultured to the point of confluence in 75 cm^2 culture flasks containing DMEM supplemented with 10% foetal calf serum, 4.5 g/L of glucose and 0.4 mg/ml of geneticin. After culturing for one week, the cells are recovered with 0.25% trypsin for 30 seconds and then resuspended in DMEM without phenol red, containing 4.5 g/L of glucose and 10% Hyclone defatted serum, and placed in white, transparent-based 96-well plates. The cells are deposited at a rate of 60 000 per well in 75 μL for 24 hours before adding the products. The products are applied in 25 μL and incubated for a further 24 hours. On the day of measurement, an equivalent volume (100 μL) of Steadylite is added to each well, and the wells are then left for 30 minutes to obtain complete lysis of the cells and maximum production of the signal. The plates are then measured in a microplate luminescence counter, after having been sealed with an adhesive film. The products are prepared in the form of a 10^−2 M stock solution, and then diluted in 100% of DMSO. Each concentration of product is prediluted in culture medium before incubation with the cells thus containing 0.625% final of DMSO.

| SMILES | EC50 |
| --- | --- |
| O=C(Nc1cc(F)cc(F)c1)c1cn2cc(-c3ccoc3)ccc2n1 [Compound 24, N-(3,5-Difluorophenyl)-6-(furan-3-yl)imidazo[1,2-a]pyridine-2-carboxamide] | 0.9 nM |
| O=C(Nc1ccccc1)c1cn2cc(C3=NCCN3)ccc2n1 [Compound 17, 6-(4,5-Dihydro-1H-imidazol-2-yl)-N-phenylimidazo[1,2-a]pyridine-2-carboxamide hydrochlorides (1:1) and (1:2)] | 26.8 nM |
| O=C(Nc1cccc(F)c1)c1cn2cc(-c3nc[nH]n3)ccc2n1 [Compound 53, N-(3-Fluorophenyl)-6-(1H-1,2,4-triazol-3-yl)imidazo[1,2-a]pyridine-2-carboxamide] | 0.4 nM |
| O=C(Nc1ccccc1)c1cn2cc(-c3ccccn3)ccc2n1 [Compound 3, N-Phenyl-6-(pyrid-2-yl)imidazo[1,2-a]pyridine-2-carboxamide] | 0.9 nM |
| O=C(Nc1cccc(F)c1F)c1cn2cc(-c3ccccn3)ccc2n1 [Compound 45, N-(2,3-Difluorophenyl)-6-(pyrid-2-yl)imidazo[1,2-a]pyridine-2-carboxamide] | 1.2 nM |
| O=C(Nc1ccccc1)c1cn2cc(-c3cn[nH]c3)ccc2n1 [Compound 29, N-Phenyl-6-(1H-pyrazol-4-yl)imidazo[1,2-a]pyridine-2-carboxamide] | 1.1 nM |
